For data set [1] the following is noted: aqueous solution at physiologic pH; cited from earlier work.
The next data set relates to aminopeptidases. Particulars: cited from earlier work.
A further data set deals with ciliary motility. Particulars: cited from earlier work.
For data set [2] the following is noted: 0.5 mg/mL in phosphate buffer, pH 7.4; vortex mixing 1 min; cited from earlier work.
For data set [3] the following is noted: anesthetized rats, cited from earlier work.

Read-outs that look alike come from different tables or passages of the source. Some results are limits rather than exact numbers.

Turning to `NCCN(CCN)/[N+]([O-])=N/O` [diethylenetriamine/NO (DETANO), diethylenetriamine/NO], the NO release time entry in data set [1] is on record as “approximately 20 hours”.

Broadly, the melting point is the temperature, or range, at which the solid turns liquid. `CC(C(=O)[O-])c1ccc(NC(=O)c2ccccc2O)cc1.[Na+]` (stereo not drawn) [Sodium Salt of Carrier B, Sodium 2-(4-(N-salicyloyl)aminophenyl)propionate]: the melting point fell in the range of 236 to 238 °C.

Consider `CCN(CC)/[N+]([O-])=N/O.CCNCC` [diethylamine/NO], for which the NO release time in data set [1] is < 3 min.

On to `CC(C)CC(N)B(O)O` (stereo not drawn) [boro-leucine], for which, in the data set with aminopeptidases, the “effectiveness in enzyme inhibition relative to bestatin” value is given as “more than 100 times” and the “effectiveness in enzyme inhibition relative to puromycin” value is reported as “more than 1000 times”.

With “2-alkyl-4-hydroxyquinolines [pyo compound]”, in the data set with ciliary motility, the “concentration producing ciliostasis / inhibiting ciliary motility” value was 50 µg/mL.

Turning to “human growth hormone (hGH): peptide hormone human growth hormone”, the “drug precipitated as insoluble aggregates” value in data set [2] is on record as 67%. Besides, the nasal bioavailability was 12.2% in data set [3] (with N-acetyl-L-cysteine (ACS)) and 7.5% in data set [3] (without N-acetyl-L-cysteine).

(Values after US7229966B2, “Compositions and methods for enhanced mucosal delivery of Y2 receptor-binding peptides and methods for treating and preventing obesity” (Nastech Pharmaceutical Company Inc., priority 2002, dated 2007).)
